Test results as given in patent publication US20120028837A1, “RAPID SCREEN FOR REPRODUCTIVE TOXICANTS” (PRESIDENT AND FELLOWS OF HARVARD COLLEGE, priority 2010, published 2012).

Tests used:
C. elegans = details: in vivo, 4 days, 1 mM
Protocol: To address whether BPA also affects C. elegans reproduction, worms were exposed to various concentrations of BPA under several culture conditions. The parameters tested were: BPA concentration (100 uM, 500 uM or 1 mM), vehicle (DMSO or ethanol), cholesterol concentration (5 ug/ml, 0.5 ug/ml or none) and culture method (liquid or plate).
Growing Conditions and Drug Exposures. Worms were cultured according to [23] at 20° C. on NGM plates without cholesterol. […] Exposure was carried from embryogenesis to adulthood by plating sodium hypochloride treated eggs onto drug and control plates and incubated at 20° C. for four days.

C. elegans germline [1] = details: in vivo, 4 days, 1 mM
Text: (§1) Synapsis and recombination are tightly linked events during pachytene throughout various species, as it is only in the context of a fully assembled SC that crossover recombination can be completed. Indeed, in C. elegans, null mutants of SC components such as syp-1, syp-2, syp-3, syp-4 and him-3, increased levels of RAD-51 foci formation and delayed kinetics of foci turnover are observed during pachytene. Consequently, there is activation of the DNA damage checkpoint leading to increased germ cell apoptosis. Recombination is an essential and highly regulated process for the exchange of information that takes place during prophase I [18]. As nuclei exit mitosis and progress through meiosis, programmed meiotic DNA double strand breaks (DSBs) are formed and processed by several DNA repair proteins including RAD-51 [25, 48]. RAD-51 levels vary greatly during progression through prophase I as it is loaded onto DNA during the process of strand invasion and is removed as DSBs repair progresses. […] As unrepaired recombination intermediates can trigger a DNA-damage checkpoint during pachytene leading to increased germ cell apoptosis, the number of apoptotic nuclei following BPA exposure was measured by Syto-12 staining. […]
Rad-51 Time Course Analysis. The number of RAD-51 foci and their kinetics throughout the seven zones was assessed as described in [25]. […]

C. elegans germline [2] = details: in vivo
Text: as §1, with “48].” for “48]. RAD-51 levels vary greatly during progression through prophase I as it is loaded onto DNA during the process of strand invasion and is removed as DSBs repair progresses.”
Quantification of Germ Cell Apoptosis. Apoptotic germline nuclei were scored in young adults between 20 and 24 hours post-L4 using SYTO-12 (Invitrogen) and were processed as described in [26]. […] Both GFP positive and negative worms (heterozygous and homozygous for cep-1 respectively) were analyzed following BPA exposure. […]

xol-1::GFP worms = test: Lethality, chemical sensitivity of xol-1::GFP strain; format: in vivo, C. elegans; details: 100 μM, 500 μM and 1 mM, four days from eggs to adulthood, 25 worms
Protocol: (§2) The sensitivity of the xol-1::GFP, nx3 strain compared to the xol-1::GFP strain was assayed by exposing 25 worms for four days (from eggs to adulthood) to a range of concentration of Bisphenol A: 100 μM, 500 μM and 1 mM. The nx3 cuticle mutation was expected to confer increased sensitivity to BPA.

xol-1::GFP, nx3 worms = test: Lethality, chemical sensitivity of xol-1::GFP, nx3 cuticle mutant strain; format: in vivo, C. elegans; details: four days
Protocol: as §2

Question: `CC(C)(c1ccc(O)cc1)c1ccc(O)cc1` [BPA, Bisphenol A] was tested. Which embryonic viability (C. elegans) did it give?
Answer: 1.5 % of controls

Question: What about the “reduction in the number of eggs laid (brood size) compared to vehicle” value (C. elegans) of the same compound?
Answer: 4 fold

Question: And the “RAD-51 foci in late pachytene (zones 6 and 7)” value (C. elegans germline [1])?
Answer: elevated number of RAD-51 foci

Question: And the “apoptotic levels in a cep-1 mutant background” value (C. elegans germline [2])?
Answer: reduced to normal levels

Question: What about the “number of apoptotic nuclei compared to vehicle” value (C. elegans germline [2]) of the same compound?
Answer: two to three-fold increase

Question: What about the lethality (xol-1::GFP worms) of the same compound?
Answer: 0%

Question: And the lethality (xol-1::GFP, nx3 worms; 100 μM)?
Answer: 0%

Question: And the lethality (xol-1::GFP, nx3 worms; 500 μM)?
Answer: 96%

Question: What about the lethality (xol-1::GFP, nx3 worms; 1 Mm) of the same compound?
Answer: 100%
